According to patent publication US9782367B2, “Process for obtaining a modafinil-based pharmaceutical composition, resulting pharmaceutical composition and use thereof” (DEBREGEAS ET ASSOCIES PHARMA, priority 2012, dated 2017):

Columns and labels:
[1] = cited from earlier work
[2] = cited from earlier work; remark: listed apart in the source
[3] = estimated; absolute bioavailability could not be determined; cited from earlier work
[4] = solubility in supercritical fluid (CO2 or tetrafluoroethane); format: physicochemical; conditions: supercritical CO2, FIG. 1
Text: From among these supercritical fluids, mention may be made of CO2: the technology of supercritical CO2 is based on the solvent power of CO2 which may be modulated at will depending on the pressure and temperature conditions applied to it.
A method for extraction with supercritical CO2 operates in a closed circuit. It includes pressurizing units (pumps) and a temperature-setting unit (exchangers) in order to bring CO2 above its critical point.
The product to be treated is placed in an extractor crossed by the supercritical CO2 flow. Molecules which are soluble in supercritical CO2, therefore extractable, are not very polar compounds with a low molecular mass.
The table below repeats the result when using S modafinil, and mannitol instead of anhydrous lactose; further the loading level was increased to about 30%.

SMILES: NC(=O)C[S@@+]([O-])C(c1ccccc1)c1ccccc1 (single isomer, unassigned) [levo-rotatory enantiomer (R)]
- AUC compared with the racemic form ([1]; after administration): larger AUC than the racemic form
- variability in plasma levels compared with the racemic form ([1]; after administration): less variability

SMILES: NC(=O)C[S+]([O-])C(c1ccccc1)c1ccccc1 (racemic) [Modafinil]
- solubility in methanol and acetone ([2]; methanol and acetone): partly soluble
- solubility in water ([2]; water): practically insoluble
- bioavailability [3]: about 40%
- solubility in CO2 [4]: acceptable solubility
- elimination half life ([1]; in humans): about 14 hours
